pIC50: −log10 of the molar value.
Tested on: LG0567-F671-PDC complex spheroids viability
Experiment: Anticancer human tumor LG0567-F671-PDC patient-derived lung adenocarcinoma cell line growth inhibition [RAS]
Conditions: for pIC50: curve of first compound; for viability, T/C: stronger effect = lower value
Summary of the method: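 Multi-cell-type spheroids: tumor cells plus HUVEC endothelial cells and mesenchymal stem cells. RAS-pathway inhibitors were combined with targeted agents, each dosed in half-log steps down from clinical Cmax, or from 10 microM when Cmax was unknown.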
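Further: spheroids exposed to compound for seven days before readout.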
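Wherever pIC50 is given: luminescence signal used as a proxy for viable cells.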

`CC1(C)CCC(Nc2ncc(C(F)(F)F)c(-c3c[nH]c4c(P(C)(C)=O)c(C#N)ccc34)n2)CN1` (centres undefined) + C#Cc1c(F)ccc2cc(O)cc(-c3ncc4c(N5CC6CCC(C5)N6)nc(OCC56CCCN5CC(F)C6)nc4c3F)c12 showed a pIC50 (second compound 0.0316 µM) of 8.36, a pIC50 (second compound 0.1 µM) greater than 9.02 and a pIC50 (second compound 0.316 µM) greater than 9.02. For the same compound, the pIC50 (second compound 1 µM) was greater than 9.02, the pIC50 (second compound 3.16 µM) was greater than 9.02 and the pIC50 (second compound 10 µM) was greater than 9.02. For the same compound, the viability, T/C (second compound 0.0316 µM, first compound 0.000949 µM) was 61.2%, the viability, T/C (second compound 0.0316 µM, first compound 0.003 µM) was 50.8% and the viability, T/C (second compound 0.0316 µM, first compound 0.00949 µM) was 48.4%. For the same compound, the viability, T/C (second compound 0.0316 µM, first compound 0.03 µM) was 45.5%, the viability, T/C (second compound 0.0316 µM, first compound 0.0949 µM) was 43.3% and the viability, T/C (second compound 0.0316 µM, first compound 0.3 µM) was 46%. The viability, T/C (second compound 0.1 µM, first compound 0.000949 µM) was 54.5%, the viability, T/C (second compound 0.1 µM, first compound 0.003 µM) was 45.1% and the viability, T/C (second compound 0.1 µM, first compound 0.00949 µM) was 42.7%. For the same compound, the viability, T/C (second compound 0.1 µM, first compound 0.03 µM) was 45.3%, the viability, T/C (second compound 0.1 µM, first compound 0.0949 µM) was 45.2% and the viability, T/C (second compound 0.1 µM, first compound 0.3 µM) was 44.4%. It also gave a viability, T/C (second compound 0.316 µM, first compound 0.000949 µM) of 40.9%, a viability, T/C (second compound 0.316 µM, first compound 0.003 µM) of 34.8% and a viability, T/C (second compound 0.316 µM, first compound 0.00949 µM) of 36%. It also gave a viability, T/C (second compound 0.316 µM, first compound 0.03 µM) of 32.6%, a viability, T/C (second compound 0.316 µM, first compound 0.0949 µM) of 34.1% and a viability, T/C (second compound 0.316 µM, first compound 0.3 µM) of 34.1%. It also gave a viability, T/C (second compound 1 µM, first compound 0.000949 µM) of 22.6%, a viability, T/C (second compound 1 µM, first compound 0.003 µM) of 21.8% and a viability, T/C (second compound 1 µM, first compound 0.00949 µM) of 23.2%. The viability, T/C (second compound 1 µM, first compound 0.03 µM) was 21.7%, the viability, T/C (second compound 1 µM, first compound 0.0949 µM) was 23% and the viability, T/C (second compound 1 µM, first compound 0.3 µM) was 25.2%. The viability, T/C (second compound 3.16 µM, first compound 0.000949 µM) was 15.2%, the viability, T/C (second compound 3.16 µM, first compound 0.003 µM) was 12.6% and the viability, T/C (second compound 3.16 µM, first compound 0.00949 µM) was 13.6%. For the same compound, the viability, T/C (second compound 3.16 µM, first compound 0.03 µM) was 15.4%, the viability, T/C (second compound 3.16 µM, first compound 0.0949 µM) was 16% and the viability, T/C (second compound 3.16 µM, first compound 0.3 µM) was 15.3%. It also gave a viability, T/C (second compound 10 µM, first compound 0.000949 µM) of 9.1%, a viability, T/C (second compound 10 µM, first compound 0.003 µM) of 8.15% and a viability, T/C (second compound 10 µM, first compound 0.00949 µM) of 8.73%. For the same compound, the viability, T/C (second compound 10 µM, first compound 0.03 µM) was 8.94%, the viability, T/C (second compound 10 µM, first compound 0.0949 µM) was 9.91% and the viability, T/C (second compound 10 µM, first compound 0.3 µM) was 8.26%.

Compound `Nc1ccn(C2OC(CO)C(O)C2(F)F)c(=O)n1` (centres undefined) + CCn1c(-c2cc(N3CCN(C)CC3)cnc2C(C)OC)c2c3cc(ccc31)-c1csc(n1)CC(NC(=O)C1CC1C)C(=O)N1CCCC(N1)C(=O)OCC(C)(C)C2 has a pIC50 (second compound 0.000949 µM) greater than 8.50, a pIC50 (second compound 0.003 µM) greater than 8.50 and a pIC50 (second compound 0.00949 µM) greater than 8.50. For the same compound, the pIC50 (second compound 0.03 µM) was greater than 8.50, the pIC50 (second compound 0.0949 µM) was greater than 8.50 and the pIC50 (second compound 0.3 µM) was greater than 8.50. It also gave a viability, T/C (second compound 0.000949 µM, first compound 0.00316 µM) of 23.8%, a viability, T/C (second compound 0.000949 µM, first compound 0.01 µM) of 22.4% and a viability, T/C (second compound 0.000949 µM, first compound 0.0316 µM) of 22.1%. For the same compound, the viability, T/C (second compound 0.000949 µM, first compound 0.1 µM) was 22.6%, the viability, T/C (second compound 0.000949 µM, first compound 0.316 µM) was 20.7% and the viability, T/C (second compound 0.000949 µM, first compound 1 µM) was 22%. For the same compound, the viability, T/C (second compound 0.003 µM, first compound 0.00316 µM) was 11%, the viability, T/C (second compound 0.003 µM, first compound 0.01 µM) was 10.7% and the viability, T/C (second compound 0.003 µM, first compound 0.0316 µM) was 10.6%. It also gave a viability, T/C (second compound 0.003 µM, first compound 0.1 µM) of 8.86%, a viability, T/C (second compound 0.003 µM, first compound 0.316 µM) of 11.5% and a viability, T/C (second compound 0.003 µM, first compound 1 µM) of 12.4%. It also gave a viability, T/C (second compound 0.00949 µM, first compound 0.00316 µM) of 6.32%, a viability, T/C (second compound 0.00949 µM, first compound 0.01 µM) of 6.32% and a viability, T/C (second compound 0.00949 µM, first compound 0.0316 µM) of 6.59%. The viability, T/C (second compound 0.00949 µM, first compound 0.1 µM) was 6.78%, the viability, T/C (second compound 0.00949 µM, first compound 0.316 µM) was 6.01% and the viability, T/C (second compound 0.00949 µM, first compound 1 µM) was 7.27%. It also gave a viability, T/C (second compound 0.03 µM, first compound 0.00316 µM) of 6.63%, a viability, T/C (second compound 0.03 µM, first compound 0.01 µM) of 4.5% and a viability, T/C (second compound 0.03 µM, first compound 0.0316 µM) of 4.58%. It also gave a viability, T/C (second compound 0.03 µM, first compound 0.1 µM) of 4.82%, a viability, T/C (second compound 0.03 µM, first compound 0.316 µM) of 5.13% and a viability, T/C (second compound 0.03 µM, first compound 1 µM) of 5.29%. For the same compound, the viability, T/C (second compound 0.0949 µM, first compound 0.00316 µM) was 3.22%, the viability, T/C (second compound 0.0949 µM, first compound 0.01 µM) was 3.54% and the viability, T/C (second compound 0.0949 µM, first compound 0.0316 µM) was 3.82%. It also gave a viability, T/C (second compound 0.0949 µM, first compound 0.1 µM) of 3.99%, a viability, T/C (second compound 0.0949 µM, first compound 0.316 µM) of 4.28% and a viability, T/C (second compound 0.0949 µM, first compound 1 µM) of 5.17%. The viability, T/C (second compound 0.3 µM, first compound 0.00316 µM) was 2.59%, the viability, T/C (second compound 0.3 µM, first compound 0.01 µM) was 2.74% and the viability, T/C (second compound 0.3 µM, first compound 0.0316 µM) was 3.25%. The viability, T/C (second compound 0.3 µM, first compound 0.1 µM) was 3.47%, the viability, T/C (second compound 0.3 µM, first compound 0.316 µM) was 4.08% and the viability, T/C (second compound 0.3 µM, first compound 1 µM) was 3.48%.

— PubChem BioAssay AID2060889 (Molecular Pharmacology Branch, DTP, NCI, 2025)
